This experiment has as its system CD2F1 mice, L1210 leukemia ip, survival T/C. Description: NCI In Vivo Anticancer Drug Screen. Data for tumor model L1210 Leukemia (intraperitoneal) in CD2F1 (CDF1) mice. Conditions: higher = longer survival. The gist of the method:
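Ratio T/C, where T is the treated-group value and C the vehicle-dosed control value, from mice implanted with a transplantable tumor.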

[1] abbreviates: endpoint: mean survival time, dose: 100.0 mg/kg/injection, schedule: Q01DX009 (ip), vehicle: saline with Tween-80.
Setting [2] is: endpoint: mean survival time, dose: 100.0 mg/kg/injection, schedule: Q04DX003 (ip), vehicle: saline with Tween-80.
Where [3] appears, read: endpoint: mean survival time, dose: 200.0 mg/kg/injection, schedule: Q01DX009 (ip), vehicle: saline with Tween-80.
[4] abbreviates: endpoint: mean survival time, dose: 400.0 mg/kg/injection, schedule: Q01DX009 (ip), vehicle: saline with Tween-80.
Setting [5] is: endpoint: mean survival time, dose: 400.0 mg/kg/injection, schedule: Q04DX003 (ip), vehicle: saline with Tween-80.
Where [6] appears, read: endpoint: mean survival time, dose: 25.0 mg/kg/injection, schedule: Q04DX003 (ip), vehicle: saline with Tween-80.
[7] abbreviates: endpoint: mean survival time, dose: 50.0 mg/kg/injection, schedule: Q01DX009 (ip), vehicle: saline with Tween-80.

Structures are written as SMILES. Where “and” joins values, the source holds several entries; their conditions need not be identical. Identical values can stand only once. Toxic doses and inconclusive results are not listed.

Turning to `NC1CCCCC1N.O=C([O-])c1ccc(N=Nc2cccc([N+](=O)[O-])c2)cc1[O-].[Pt+4]`, the T/C (endpoint: median survival time, dose: 3.12 mg/kg/injection, schedule: Q04DX003 (ip), vehicle: saline with Tween-80) was 105 % of control and 109 % of control; the T/C (endpoint: median survival time, dose: 6.25 mg/kg/injection, schedule: Q04DX003 (ip), vehicle: saline with Tween-80) was 102 % of control and 110 % of control; the T/C (endpoint: median survival time, dose: 12.5 mg/kg/injection, schedule: Q04DX003 (ip), vehicle: saline with Tween-80) is 113 % of control; the T/C (endpoint: median survival time, dose: 25.0 mg/kg/injection, schedule: Q04DX003 (ip), vehicle: saline with Tween-80) was 116 % of control and 123 % of control; the T/C (endpoint: median survival time, dose: 50.0 mg/kg/injection, schedule: Q04DX003 (ip), vehicle: saline with Tween-80) is 123 % of control; the T/C (endpoint: median survival time, dose: 100.0 mg/kg/injection, schedule: Q04DX003 (ip), vehicle: saline with Tween-80) is 156 % of control. Besides, under “endpoint: median survival time, dose: 200.0 mg/kg/injection, schedule: Q04DX003 (ip), vehicle: saline with Tween-80”, the T/C is 166 % of control and 313 % of control.

Consider `Nc1ncnc2c1ncn2C1OC2COP(=O)(O)OC2C1OCc1ccccc1` (stereo unspecified), for which the T/C is, setting by setting: (endpoint: mean survival time, dose: 100.0 mg/kg/injection, schedule: Q01DX005 (ip), vehicle: saline) 103 % of control; (endpoint: mean survival time, dose: 200.0 mg/kg/injection, schedule: Q01DX005 (ip), vehicle: saline) 94 % of control.

On to `Cc1cc(O)c(C)c(C)c1N=Nc1ccccc1`, for which the T/C reads like this: (endpoint: mean survival time, dose: 100.0 mg/kg/injection, schedule: Q01DX005 (ip), vehicle: saline with Tween-80) 97 % of control; (endpoint: mean survival time, dose: 200.0 mg/kg/injection, schedule: Q01DX005 (ip), vehicle: saline with Tween-80) 97 % of control; (endpoint: mean survival time, dose: 400.0 mg/kg/injection, schedule: Q01DX005 (ip), vehicle: saline with Tween-80) 97 % of control.

For the compound `CCCCCCCCCCC(CCCCCCCCCC)=NN=C(CCCCCCCCCC)CCCCCCCCCC`, the T/C reads like this: (endpoint: mean survival time, dose: 100.0 mg/kg/injection, schedule: Q01DX001 (ip), vehicle: Klucel (hydroxypropylcellulose) (HPC)) 90 % of control; (endpoint: mean survival time, dose: 200.0 mg/kg/injection, schedule: Q01DX001 (ip), vehicle: Klucel (hydroxypropylcellulose) (HPC)) 86 % of control; (endpoint: mean survival time, dose: 400.0 mg/kg/injection, schedule: Q01DX001 (ip), vehicle: Klucel (hydroxypropylcellulose) (HPC)) 90 % of control.

As to `CCn1cnc2c(SC3CCCC3)ncnc21`, the T/C is 112 % of control (endpoint: mean survival time, dose: 100.0 mg/kg/injection, schedule: Q01DX001 (ip), vehicle: carboxymethylcellulose (CMC)); 108 % of control (endpoint: mean survival time, dose: 200.0 mg/kg/injection, schedule: Q01DX001 (ip), vehicle: carboxymethylcellulose (CMC)); 121 % of control (endpoint: mean survival time, dose: 400.0 mg/kg/injection, schedule: Q01DX001 (ip), vehicle: carboxymethylcellulose (CMC)).

For `Cc1cc(O)c(Br)c(C)c1Br`, the T/C reads like this: under setting [1], 111 % of control; under setting [2], 104 % of control; under setting [3], 98 % of control; (endpoint: mean survival time, dose: 200.0 mg/kg/injection, schedule: Q04DX003 (ip), vehicle: saline with Tween-80) 97 % of control; under setting [4], 106 % of control; under setting [5], 101 % of control.

Consider `CCCOc1ccc(C(N)=S)c2ccccc12`, for which the T/C runs as follows: (endpoint: mean survival time, dose: 100.0 mg/kg/injection, schedule: Q04DX002 (ip), vehicle: Klucel (hydroxypropylcellulose) (HPC)) 105 % of control; (endpoint: mean survival time, dose: 200.0 mg/kg/injection, schedule: Q04DX002 (ip), vehicle: Klucel (hydroxypropylcellulose) (HPC)) 102 % of control; (endpoint: mean survival time, dose: 400.0 mg/kg/injection, schedule: Q04DX002 (ip), vehicle: Klucel (hydroxypropylcellulose) (HPC)) 105 % of control.

As for `O=c1cc[nH]c(=S)[nH]1.[Pd]`, the T/C runs as follows: (endpoint: mean survival time, dose: 3.13 mg/kg/injection, schedule: Q04DX003 (ip), vehicle: distilled water + Tween-80) 101 % of control; (endpoint: mean survival time, dose: 6.25 mg/kg/injection, schedule: Q04DX003 (ip), vehicle: distilled water + Tween-80) 101 % of control; (endpoint: mean survival time, dose: 12.5 mg/kg/injection, schedule: Q04DX003 (ip), vehicle: distilled water + Tween-80) 96 % of control; (endpoint: mean survival time, dose: 25.0 mg/kg/injection, schedule: Q04DX003 (ip), vehicle: distilled water + Tween-80) 98 % of control; (endpoint: mean survival time, dose: 50.0 mg/kg/injection, schedule: Q04DX003 (ip), vehicle: distilled water + Tween-80) 95 % of control; (endpoint: mean survival time, dose: 100.0 mg/kg/injection, schedule: Q04DX003 (ip), vehicle: distilled water + Tween-80) 90 % of control. For the same compound, the T/C (endpoint: mean survival time, dose: 200.0 mg/kg/injection, schedule: Q04DX003 (ip), vehicle: distilled water + Tween-80) was 90 % of control.

As to `Cc1cc(F)ccc1[As](=O)(O)O`, the T/C is, setting by setting: (endpoint: mean survival time, dose: 6.25 mg/kg/injection, schedule: Q04DX003 (ip), vehicle: saline with Tween-80) 103 % of control; (endpoint: mean survival time, dose: 12.5 mg/kg/injection, schedule: Q04DX003 (ip), vehicle: saline with Tween-80) 95 % of control; under setting [6], 97 % of control.

As to `CC(=O)OCC1OC(OC(C)=O)C(NC(=O)N(CCN(C)CCO)N=O)C(OC(C)=O)C1OC(C)=O` (stereo unspecified), the T/C runs as follows: (endpoint: mean survival time, dose: 4.06 mg/kg/injection, schedule: Q04DX002 (ip), vehicle: saline + alcohol) 100 % of control; (endpoint: mean survival time, dose: 8.13 mg/kg/injection, schedule: Q04DX002 (ip), vehicle: saline + alcohol) 101 % of control; (endpoint: mean survival time, dose: 16.25 mg/kg/injection, schedule: Q04DX002 (ip), vehicle: saline + alcohol) 101 % of control; (endpoint: mean survival time, dose: 32.5 mg/kg/injection, schedule: Q04DX002 (ip), vehicle: saline + alcohol) 97 % of control; (endpoint: mean survival time, dose: 65.0 mg/kg/injection, schedule: Q04DX002 (ip), vehicle: saline + alcohol) 101 % of control; (endpoint: mean survival time, dose: 130.0 mg/kg/injection, schedule: Q04DX002 (ip), vehicle: saline + alcohol) 107 % of control.

Consider `COc1ccc(C(=O)CCN2CCC(O)(c3ccccc3)CC2)cc1`, for which the T/C is, setting by setting: (endpoint: mean survival time, dose: 12.5 mg/kg/injection, schedule: Q01DX009 (ip), vehicle: saline with Tween-80) 93 % of control; (endpoint: mean survival time, dose: 25.0 mg/kg/injection, schedule: Q01DX009 (ip), vehicle: saline with Tween-80) 97 % of control; under setting [7], 89 % of control.

Turning to `CC(CCC(C)(C)O)C1CCC2C3C(O)CC4CCCCC4(C)C3CC(O)C12C` (stereo unspecified), the T/C under setting [5] was 88 % of control.

Regarding `N#CC(c1ccccn1)N1CCOCC1` (stereo unspecified), the T/C (endpoint: mean survival time, dose: 12.5 mg/kg/injection, schedule: Q04DX002 (ip), vehicle: saline with Tween-80) was 97 % of control and 100 % of control; the T/C under setting [6] is 104 % of control; the T/C (endpoint: mean survival time, dose: 50.0 mg/kg/injection, schedule: Q01DX001 (ip), vehicle: saline with Tween-80) was 100 % of control; the T/C under setting [7] was 89 % of control and 103 % of control; the T/C (endpoint: mean survival time, dose: 50.0 mg/kg/injection, schedule: Q04DX003 (ip), vehicle: saline with Tween-80) was 109 % of control; the T/C (endpoint: mean survival time, dose: 100.0 mg/kg/injection, schedule: Q01DX001 (ip), vehicle: saline with Tween-80) was 94 % of control. In addition, the T/C is 89 % of control and 95 % of control under setting [1]; 107 % of control under setting [2]; 100 % of control (endpoint: mean survival time, dose: 200.0 mg/kg/injection, schedule: Q01DX001 (ip), vehicle: saline with Tween-80); 98 % of control (endpoint: mean survival time, dose: 200.0 mg/kg/injection, schedule: Q04DX002 (ip), vehicle: saline with Tween-80).

On to `CC(C)OC(=O)Nc1cc(F)ccc1F`, for which the T/C runs as follows: (endpoint: mean survival time, dose: 100.0 mg/kg/injection, schedule: Q01DX009 (ip), vehicle: other) 97 % of control; (endpoint: mean survival time, dose: 200.0 mg/kg/injection, schedule: Q01DX009 (ip), vehicle: other) 94 % of control.

`CC(=O)Nc1ccc(SC(=O)N(C)C)cc1`: the T/C under setting [2] is 92 % of control.

With `CCCN(CCC)S(=O)(=O)c1ccc(NC(=O)Oc2ccccc2OC)cc1`, the T/C reads like this: (endpoint: mean survival time, dose: 100.0 mg/kg/injection, schedule: Q01DX001 (ip), vehicle: saline) 95 % of control; (endpoint: mean survival time, dose: 200.0 mg/kg/injection, schedule: Q01DX001 (ip), vehicle: saline) 91 % of control; (endpoint: mean survival time, dose: 400.0 mg/kg/injection, schedule: Q01DX001 (ip), vehicle: saline) 91 % of control.

Turning to `COc1ccc(COC(=O)Oc2ccc(C)cc2)cc1OC`, the T/C was 100 % of control under setting [1], 102 % of control under setting [3] and 98 % of control under setting [4].
